The source of these data is ChEMBL document CHEMBL4334516, “Kinase Chemodiversity from the Arctic: The Breitfussins” (J Med Chem, 2019).

Structures are written as SMILES. The source made the active and inactive calls. No cut-off for these calls is given here.

The target in data set [1] is Aurora kinase A (Homo sapiens) (UniProt O14965). As to the kind of experiment: Binding affinity to wild-type human partial length AURKA (E122 to K401 residues) expressed in mammalian expression system assessed as residual binding level at 10 uM by active-site directed competition binding assay based Kinomescan method relative to control.
Data set [2] concerns HepG2. The data set can be described thus: Cytotoxicity in human HepG2 cells assessed as reduction in cell viability incubated for 72 hrs by SRB assay. The note with it: HepG2, 72 h. On the technique in general: In SRB staining, fixed cells bind dye roughly in proportion to their protein.
Data set [3] can be described thus: Toxicity in zebrafish embryos assessed as survival at 1.4 uM after 72 hrs (reference value: 95%). Also on record: species or system Danio rerio. The note with it: in vivo.
Data set [4] can be described thus: Toxicity in zebrafish embryos assessed as induction of tail degeneration by measuring unaffected embryos level at 0.1 uM after 72 hrs (reference value: 100%). It is filed as tissue-based, Danio rerio. The note with it: in vivo.
Data set [5] concerns Hs-578T. The data set can be described thus: cells. The note with it: Homo sapiens, 72 h.
Description: Cytotoxicity in human Hs 578T cells assessed as reduction in cell viability incubated for 72 hrs by SRB assay
In data set [6] the target is Serine/threonine-protein kinase DCLK3 (Homo sapiens, UniProt Q9C098). As to the kind of experiment: Binding affinity to wild-type human partial length DCAMKL3 (E140 to V628 residues) expressed in bacterial expression system by active-site directed competition binding assay based Kinomescan method.
Data set [7] deals with Citron Rho-interacting kinase (Homo sapiens, UniProt O14578). As to the kind of experiment: Binding affinity to wild-type human partial length CIT (M68 to E432 residues) expressed in bacterial expression system by active-site directed competition binding assay based Kinomescan method.
Data set [8] deals with Mitogen-activated protein kinase kinase kinase 9 (Homo sapiens, UniProt P80192). As to the kind of experiment: Inhibition of MLK1 (unknown origin) assessed as residual enzyme activity at 1 uM by [33P]-ATP filter binding kinase assay relative to control.
Data set [9] can be described thus: Intrinsic clearance in human liver microsomes at 3 uM measured up to 50 mins by LC-MS analysis. It is filed as ADME, Microsome. Conditions: read-out: CLH.
Data set [10] deals with Serine/threonine-protein kinase 36 (Homo sapiens, UniProt Q9NRP7). As to the kind of experiment: Binding affinity to wild-type human partial length STK36 (M1 to T271 residues) expressed in bacterial expression system by active-site directed competition binding assay based Kinomescan method.
The target of data set [11] is cGMP-specific 3',5'-cyclic phosphodiesterase (Homo sapiens, UniProt O76074). As to the kind of experiment: Inhibition of human recombinant phosphodiesterase type 5 using [3H]cGMP and cGMP incubated for 60 mins by scintillation counting method. Conditions: 1 h.
Data set [12] in a line: Toxicity in zebrafish embryos assessed as survival at 14 uM after 72 hrs (reference value: 95%). On the set-up: species or system Danio rerio. Conditions: in vivo.
The target in data set [13] is Serine/threonine-protein kinase RIO1 (Homo sapiens, UniProt Q9BRS2). The data set can be described thus: Binding affinity to wild-type human full length RIOK1 (M1 to K568 residues) expressed in bacterial expression system by active-site directed competition binding assay based Kinomescan method.
Data set [14] is described as follows: Toxicity in zebrafish embryos assessed as induction of general edema by measuring unaffected embryos level at 0.1 uM after 72 hrs (reference value: 100%). Also on record: species or system Danio rerio. Conditions: in vivo.
Data set [15] concerns the target Serine/threonine-protein kinase 17A (Homo sapiens) (UniProt Q9UEE5). The data set can be described thus: Binding affinity to wild-type human partial length DRAK1 (R32 to E363 residues) expressed in bacterial expression system assessed as residual binding level at 10 uM by active-site directed competition binding assay based Kinomescan method relative to control.

For data set [16], the target named is Non-receptor tyrosine-protein kinase TYK2 (Homo sapiens, UniProt P29597). The data set can be described thus: Binding affinity to wild-type human partial length TYK2 JH2 domain-pseudokinase expressed in mammalian expression system by active-site directed competition binding assay based Kinomescan method.
The nature of data set [17]: Cytotoxicity in human MT3 cells assessed as reduction in cell viability incubated for 72 hrs by SRB assay. The note with it: MT-3, 72 h.
Data set [18] concerns the target T1, Mitogen-activated protein kinase kinase kinase 7 (Homo sapiens) (UniProt O43318).
T1 sequence (whole entry): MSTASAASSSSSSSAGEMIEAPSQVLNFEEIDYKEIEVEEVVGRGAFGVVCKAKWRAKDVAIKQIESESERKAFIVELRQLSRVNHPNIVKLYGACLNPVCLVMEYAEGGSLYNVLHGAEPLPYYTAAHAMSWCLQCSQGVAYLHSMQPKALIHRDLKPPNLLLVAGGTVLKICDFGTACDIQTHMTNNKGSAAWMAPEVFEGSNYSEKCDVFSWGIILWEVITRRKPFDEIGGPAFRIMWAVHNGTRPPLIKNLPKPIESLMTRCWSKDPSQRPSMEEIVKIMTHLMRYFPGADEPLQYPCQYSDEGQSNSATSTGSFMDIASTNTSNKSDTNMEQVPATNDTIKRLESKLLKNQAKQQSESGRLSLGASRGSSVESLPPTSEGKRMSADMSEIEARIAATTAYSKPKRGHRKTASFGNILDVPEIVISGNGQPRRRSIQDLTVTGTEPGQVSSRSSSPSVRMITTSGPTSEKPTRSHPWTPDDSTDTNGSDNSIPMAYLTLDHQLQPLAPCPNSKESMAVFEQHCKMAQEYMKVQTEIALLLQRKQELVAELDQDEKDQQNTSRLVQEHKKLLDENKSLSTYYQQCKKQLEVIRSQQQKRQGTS
The data set can be described thus: Inhibition of TAK1 (unknown origin) assessed as residual enzyme activity at 1 uM by [33P]-ATP filter binding kinase assay relative to control.

Data set [19] addresses Receptor-type tyrosine-protein kinase FLT3 (Homo sapiens, UniProt P36888, N841I). As to the kind of experiment: Binding affinity to human partial length FLT3 N841I mutant (V592 to Y969 residues) expressed in bacterial expression system by active-site directed competition binding assay based Kinomescan method.
The nature of data set [20]: Toxicity in zebrafish embryos assessed as induction of general edema by measuring unaffected embryos level at 14 uM after 72 hrs (reference value: 100%). Also on record: species or system Danio rerio. Conditions: in vivo.
Data set [21] is described as follows: Toxicity in zebrafish embryos assessed as induction of heart edema by measuring unaffected embryos level at 14 uM after 72 hrs (reference value: 100%). The note with it: in vivo. It is filed as tissue-based, Danio rerio.
Data set [22] has as its target Aurora kinase B (Homo sapiens, UniProt Q96GD4). As to the kind of experiment: Binding affinity to wild-type human partial length AURKB (D25 to A303 residues) expressed in mammalian expression system assessed as residual binding level at 10 uM by active-site directed competition binding assay based Kinomescan method relative to control.
The nature of data set [23]: Toxicity in zebrafish embryos assessed as induction of scoliosis by measuring unaffected embryos level at 14 uM after 72 hrs (reference value: 100%). Also on record: species or system Danio rerio. The note with it: in vivo.
The target of data set [24] is 3',5'-cyclic-AMP phosphodiesterase 4D (Homo sapiens) (UniProt Q08499). The data set can be described thus: Inhibition of human recombinant phosphodiesterase type 4D2 using [3H]cAMP and cAMP incubated for 20 mins by scintillation counting method.
Data set [25] addresses Receptor-interacting serine/threonine-protein kinase 2 (Homo sapiens, UniProt O43353). The data set can be described thus: Inhibition of RIPK2 (unknown origin) assessed as residual enzyme activity at 1 uM by [33P]-ATP filter binding kinase assay relative to control.
Data set [26] addresses Cyclin-G-associated kinase (Homo sapiens, UniProt O14976). The data set can be described thus: Binding affinity to wild-type human partial length GAK (G13 to Y338 residues) expressed in bacterial expression system by active-site directed competition binding assay based Kinomescan method.
Data set [27] addresses Mitogen-activated protein kinase kinase kinase 11 (Homo sapiens, UniProt Q16584). The data set can be described thus: Inhibition of MLK3 (unknown origin) assessed as residual enzyme activity at 5 uM by [33P]-ATP filter binding kinase assay relative to control.

Serine/threonine-protein kinase 36, sequence (Q9NRP7 whole entry, the tested form may be a part): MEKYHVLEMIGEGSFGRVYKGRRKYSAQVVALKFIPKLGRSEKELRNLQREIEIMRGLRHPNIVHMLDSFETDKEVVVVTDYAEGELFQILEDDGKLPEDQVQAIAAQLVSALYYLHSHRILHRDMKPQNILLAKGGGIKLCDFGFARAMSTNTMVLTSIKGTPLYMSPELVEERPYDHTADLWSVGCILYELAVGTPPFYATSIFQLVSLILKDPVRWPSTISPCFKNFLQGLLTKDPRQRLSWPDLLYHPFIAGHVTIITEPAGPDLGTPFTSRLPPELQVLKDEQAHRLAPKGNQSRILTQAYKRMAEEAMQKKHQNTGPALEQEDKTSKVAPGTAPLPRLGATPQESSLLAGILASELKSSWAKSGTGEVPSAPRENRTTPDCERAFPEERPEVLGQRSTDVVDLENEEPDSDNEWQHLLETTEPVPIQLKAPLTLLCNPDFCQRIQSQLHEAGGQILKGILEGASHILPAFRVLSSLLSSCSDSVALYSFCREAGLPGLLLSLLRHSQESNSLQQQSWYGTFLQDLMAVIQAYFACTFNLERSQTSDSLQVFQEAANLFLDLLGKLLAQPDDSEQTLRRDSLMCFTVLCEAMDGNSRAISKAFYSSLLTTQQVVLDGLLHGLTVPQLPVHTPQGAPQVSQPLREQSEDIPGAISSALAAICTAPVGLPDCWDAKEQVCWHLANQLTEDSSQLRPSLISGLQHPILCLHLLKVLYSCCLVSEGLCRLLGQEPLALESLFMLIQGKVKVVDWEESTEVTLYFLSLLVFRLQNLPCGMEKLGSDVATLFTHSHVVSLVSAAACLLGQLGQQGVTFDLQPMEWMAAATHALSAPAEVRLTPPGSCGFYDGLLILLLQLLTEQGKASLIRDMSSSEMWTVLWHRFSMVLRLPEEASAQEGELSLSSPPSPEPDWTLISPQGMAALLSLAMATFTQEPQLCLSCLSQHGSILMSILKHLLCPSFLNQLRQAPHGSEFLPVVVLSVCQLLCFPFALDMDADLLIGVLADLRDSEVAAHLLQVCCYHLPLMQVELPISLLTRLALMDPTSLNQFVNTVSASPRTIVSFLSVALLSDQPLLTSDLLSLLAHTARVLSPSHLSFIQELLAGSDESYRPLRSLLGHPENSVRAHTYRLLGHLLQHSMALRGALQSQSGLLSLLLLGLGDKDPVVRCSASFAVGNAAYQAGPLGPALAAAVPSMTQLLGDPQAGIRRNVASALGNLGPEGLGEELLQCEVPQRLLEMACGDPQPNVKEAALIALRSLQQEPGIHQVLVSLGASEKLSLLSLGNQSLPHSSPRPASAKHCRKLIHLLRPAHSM
Non-receptor tyrosine-protein kinase TYK2, sequence (P29597 whole entry, the tested form may be a part): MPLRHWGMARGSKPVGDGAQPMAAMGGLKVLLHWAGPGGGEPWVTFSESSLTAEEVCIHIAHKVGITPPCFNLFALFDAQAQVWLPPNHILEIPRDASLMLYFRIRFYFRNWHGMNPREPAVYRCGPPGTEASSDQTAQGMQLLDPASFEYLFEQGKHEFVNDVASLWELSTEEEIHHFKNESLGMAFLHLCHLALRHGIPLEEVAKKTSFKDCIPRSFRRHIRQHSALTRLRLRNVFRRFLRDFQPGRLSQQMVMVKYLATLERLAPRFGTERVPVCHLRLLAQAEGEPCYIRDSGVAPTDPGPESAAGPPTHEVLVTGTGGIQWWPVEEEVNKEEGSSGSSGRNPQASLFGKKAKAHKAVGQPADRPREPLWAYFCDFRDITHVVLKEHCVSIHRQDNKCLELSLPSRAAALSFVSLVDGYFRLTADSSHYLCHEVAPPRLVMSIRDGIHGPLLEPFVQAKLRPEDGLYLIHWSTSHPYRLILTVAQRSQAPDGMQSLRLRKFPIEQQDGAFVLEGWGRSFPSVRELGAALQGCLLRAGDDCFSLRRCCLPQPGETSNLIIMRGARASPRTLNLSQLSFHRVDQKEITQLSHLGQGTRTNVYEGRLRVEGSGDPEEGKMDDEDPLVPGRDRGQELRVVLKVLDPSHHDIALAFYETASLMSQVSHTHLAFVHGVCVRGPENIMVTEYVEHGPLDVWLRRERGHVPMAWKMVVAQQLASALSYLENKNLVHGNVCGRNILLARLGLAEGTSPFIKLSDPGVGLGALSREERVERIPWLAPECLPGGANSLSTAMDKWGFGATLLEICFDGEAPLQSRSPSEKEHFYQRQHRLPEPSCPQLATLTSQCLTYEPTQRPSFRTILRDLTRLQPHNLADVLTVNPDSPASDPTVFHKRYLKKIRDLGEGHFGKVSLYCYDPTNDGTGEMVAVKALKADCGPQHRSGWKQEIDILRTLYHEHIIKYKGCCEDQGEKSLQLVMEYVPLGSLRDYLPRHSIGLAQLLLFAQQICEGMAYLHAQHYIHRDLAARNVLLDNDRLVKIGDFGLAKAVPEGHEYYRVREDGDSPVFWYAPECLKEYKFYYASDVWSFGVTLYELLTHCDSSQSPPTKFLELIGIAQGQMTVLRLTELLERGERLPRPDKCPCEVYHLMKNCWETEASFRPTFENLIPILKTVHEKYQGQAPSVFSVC
Serine/threonine-protein kinase 17A (Homo sapiens), sequence (Q9UEE5 whole entry, the tested form may be a part): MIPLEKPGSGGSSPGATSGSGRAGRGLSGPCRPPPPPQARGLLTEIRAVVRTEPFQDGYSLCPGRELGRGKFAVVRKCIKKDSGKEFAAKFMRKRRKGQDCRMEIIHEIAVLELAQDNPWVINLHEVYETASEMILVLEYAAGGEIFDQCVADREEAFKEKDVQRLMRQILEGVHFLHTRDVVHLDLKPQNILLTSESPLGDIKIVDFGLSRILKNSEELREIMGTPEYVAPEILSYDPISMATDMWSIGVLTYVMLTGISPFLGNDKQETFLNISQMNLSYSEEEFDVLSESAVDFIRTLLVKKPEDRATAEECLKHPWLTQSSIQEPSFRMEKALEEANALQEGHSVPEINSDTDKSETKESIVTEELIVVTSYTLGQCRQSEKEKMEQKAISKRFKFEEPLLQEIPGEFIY
3',5'-cyclic-AMP phosphodiesterase 4D (Homo sapiens), sequence (Q08499 whole entry): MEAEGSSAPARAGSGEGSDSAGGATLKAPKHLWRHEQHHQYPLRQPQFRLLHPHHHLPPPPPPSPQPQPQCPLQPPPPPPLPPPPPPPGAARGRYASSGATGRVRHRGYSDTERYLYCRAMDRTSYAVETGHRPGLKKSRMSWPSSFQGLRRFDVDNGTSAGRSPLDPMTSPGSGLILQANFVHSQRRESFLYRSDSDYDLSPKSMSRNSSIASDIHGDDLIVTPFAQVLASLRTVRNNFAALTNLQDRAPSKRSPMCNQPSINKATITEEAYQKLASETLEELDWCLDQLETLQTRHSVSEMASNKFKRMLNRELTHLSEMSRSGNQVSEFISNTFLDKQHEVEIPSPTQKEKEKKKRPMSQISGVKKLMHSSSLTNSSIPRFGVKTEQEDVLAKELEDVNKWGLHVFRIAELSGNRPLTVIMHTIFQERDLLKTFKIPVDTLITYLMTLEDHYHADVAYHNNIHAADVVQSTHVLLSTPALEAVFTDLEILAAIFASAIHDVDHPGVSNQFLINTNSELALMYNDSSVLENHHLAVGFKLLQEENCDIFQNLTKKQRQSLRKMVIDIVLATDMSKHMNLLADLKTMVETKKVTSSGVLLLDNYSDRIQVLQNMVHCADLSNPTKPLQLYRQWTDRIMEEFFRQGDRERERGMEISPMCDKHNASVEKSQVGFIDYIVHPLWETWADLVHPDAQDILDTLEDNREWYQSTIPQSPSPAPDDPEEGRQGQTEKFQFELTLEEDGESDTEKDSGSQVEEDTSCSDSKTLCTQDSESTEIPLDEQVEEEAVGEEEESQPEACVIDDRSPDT
Serine/threonine-protein kinase RIO1, sequence (Q9BRS2 whole entry, the tested form may be a part): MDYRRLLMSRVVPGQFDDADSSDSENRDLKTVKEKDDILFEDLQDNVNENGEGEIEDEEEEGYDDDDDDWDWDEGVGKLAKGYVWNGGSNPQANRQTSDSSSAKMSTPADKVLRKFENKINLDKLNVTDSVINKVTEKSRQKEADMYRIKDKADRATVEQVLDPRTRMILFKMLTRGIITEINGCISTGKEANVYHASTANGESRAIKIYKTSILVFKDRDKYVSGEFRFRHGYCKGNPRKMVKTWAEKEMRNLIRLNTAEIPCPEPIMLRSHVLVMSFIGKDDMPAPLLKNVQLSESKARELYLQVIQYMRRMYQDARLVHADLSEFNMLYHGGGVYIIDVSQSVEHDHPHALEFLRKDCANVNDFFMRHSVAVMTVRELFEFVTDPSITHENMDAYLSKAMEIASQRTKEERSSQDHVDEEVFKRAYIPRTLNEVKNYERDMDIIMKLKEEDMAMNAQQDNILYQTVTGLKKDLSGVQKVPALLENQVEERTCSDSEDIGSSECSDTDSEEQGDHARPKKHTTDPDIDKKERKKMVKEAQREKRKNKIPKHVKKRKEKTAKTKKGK
Aurora kinase B, sequence (Q96GD4 whole entry, the tested form may be a part): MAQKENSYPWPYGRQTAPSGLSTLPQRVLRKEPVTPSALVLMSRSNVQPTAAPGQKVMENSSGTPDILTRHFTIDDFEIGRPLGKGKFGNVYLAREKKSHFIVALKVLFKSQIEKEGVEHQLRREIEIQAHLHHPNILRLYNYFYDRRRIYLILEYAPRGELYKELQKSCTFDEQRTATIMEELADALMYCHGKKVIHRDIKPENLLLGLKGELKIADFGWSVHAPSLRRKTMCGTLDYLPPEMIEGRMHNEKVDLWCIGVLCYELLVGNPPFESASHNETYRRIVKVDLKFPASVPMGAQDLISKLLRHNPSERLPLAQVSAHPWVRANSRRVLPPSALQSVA
Aurora kinase A (Homo sapiens), sequence (O14965 whole entry, the tested form may be a part): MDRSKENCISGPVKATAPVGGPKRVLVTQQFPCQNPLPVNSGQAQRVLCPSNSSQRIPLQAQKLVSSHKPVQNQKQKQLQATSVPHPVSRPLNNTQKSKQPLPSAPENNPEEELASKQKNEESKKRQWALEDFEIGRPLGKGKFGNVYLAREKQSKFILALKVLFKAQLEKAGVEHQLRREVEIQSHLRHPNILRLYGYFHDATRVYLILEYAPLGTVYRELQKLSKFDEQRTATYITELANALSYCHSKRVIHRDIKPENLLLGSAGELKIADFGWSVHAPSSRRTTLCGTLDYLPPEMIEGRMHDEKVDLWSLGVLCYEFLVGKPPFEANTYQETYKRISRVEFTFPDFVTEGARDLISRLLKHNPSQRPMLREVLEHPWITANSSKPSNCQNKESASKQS

In the case of `COc1cc2c(-c3cnc(-c4ccc[nH]4)o3)c[nH]c2cc1Br`, the Activity in [1] was found to be 80%; in data set [4] it was 100%; in data set [8], 26%; in data set [14], 100%; in [15], 2.9%; in data set [18], 35%. Further, the Activity in [20] was found to be 100%; in data set [21], 100%; in data set [22], 50%; in data set [23], 0%; in data set [25], 41%. Moreover, the IC50 came out at 3000 nM in data set [2], 5220 nM in data set [5] and 930 nM in data set [17]. Besides, the survival at 72 h, 1.4 µM in data set [3] was 45%. Besides, the dissociation constant Kd in data set [6] worked out at 1800 nM; in data set [7], 2700 nM; in [10], 2700 nM; in [13] it was 2900 nM; in [16], 1800 nM; in data set [19], 8900 nM. The compound further showed an equilibrium dissociation constant (Kd) in data set [26] of 440 nM. Also, in data set [9], the microsomal CLint at 3 µM amounted to 14 µL/min/mg. For the same compound, the “inhibition (INH)” value in data set [11] is recorded as “Active”. Also, the survival at 72 h, 14 µM in data set [12] stood at 5%. Besides, in data set [24], the inhibition entry is “Active”.

Consider `COc1cc(Br)cc2[nH]cc(-c3cnc(-c4ccc[nH]4)o3)c12`, for which the Activity in data set [27] is 7%.

Usually IC50 stands for the midpoint of a concentration-inhibition curve. One may read the Kd as a measure of binding affinity in units of concentration. Lower therefore signals a tighter complex.
